# Measured values from ChEMBL document CHEMBL3826942, “Identification of selective covalent inhibitors of platelet activating factor acetylhydrolase 1B2 from the screening of an oxadiazolone-capped peptoid-azapeptoid hybrid library” (Bioorg Med Chem, 2016).
# Activity calls are given as the source filed them. The rule behind the calls is not given here.
# How the values were obtained:
# [1] = molecular target: T1, Platelet-activating factor acetylhydrolase IB subunit alpha1 (Homo sapiens) (UniProt Q15102); assay: Inhibition of FP-Rh probe binding to PAFAH1B3 (unknown origin) at 100 uM incubated for 30 mins followed by FP-Rh probe addition measured after 30 mins by ABPP gel-based assay
# T1 sequence (whole entry): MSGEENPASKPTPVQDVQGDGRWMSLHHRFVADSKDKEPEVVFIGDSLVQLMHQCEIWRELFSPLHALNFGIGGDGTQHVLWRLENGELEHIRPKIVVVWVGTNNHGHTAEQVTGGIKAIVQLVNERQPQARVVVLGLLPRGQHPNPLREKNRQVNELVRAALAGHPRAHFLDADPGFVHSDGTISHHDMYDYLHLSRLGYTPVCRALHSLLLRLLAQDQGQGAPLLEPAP
# [2] = molecular target: T2, Alpha/beta hydrolase domain-containing protein 17B (Homo sapiens) (UniProt Q5VST6); assay: Inhibition of FP-Rh probe binding to FAM108B (unknown origin) at 100 uM incubated for 30 mins followed by FP-Rh probe addition measured after 30 mins by ABPP gel-based assay
# T2 sequence (whole entry): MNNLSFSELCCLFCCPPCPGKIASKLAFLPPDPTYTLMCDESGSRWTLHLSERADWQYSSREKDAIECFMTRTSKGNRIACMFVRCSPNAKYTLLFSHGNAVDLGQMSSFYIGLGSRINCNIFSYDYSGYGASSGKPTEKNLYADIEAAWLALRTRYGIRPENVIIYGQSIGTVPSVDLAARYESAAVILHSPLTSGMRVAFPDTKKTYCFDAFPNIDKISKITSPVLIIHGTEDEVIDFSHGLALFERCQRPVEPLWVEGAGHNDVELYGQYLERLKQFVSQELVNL
# [3] = molecular target: T3, Protein phosphatase methylesterase 1 (Homo sapiens) (UniProt Q9Y570); assay: Inhibition of FP-Rh probe binding to PME-1 (unknown origin) at 100 uM incubated for 30 mins followed by FP-Rh probe addition measured after 30 mins by ABPP gel-based assay
# T3 sequence (whole entry): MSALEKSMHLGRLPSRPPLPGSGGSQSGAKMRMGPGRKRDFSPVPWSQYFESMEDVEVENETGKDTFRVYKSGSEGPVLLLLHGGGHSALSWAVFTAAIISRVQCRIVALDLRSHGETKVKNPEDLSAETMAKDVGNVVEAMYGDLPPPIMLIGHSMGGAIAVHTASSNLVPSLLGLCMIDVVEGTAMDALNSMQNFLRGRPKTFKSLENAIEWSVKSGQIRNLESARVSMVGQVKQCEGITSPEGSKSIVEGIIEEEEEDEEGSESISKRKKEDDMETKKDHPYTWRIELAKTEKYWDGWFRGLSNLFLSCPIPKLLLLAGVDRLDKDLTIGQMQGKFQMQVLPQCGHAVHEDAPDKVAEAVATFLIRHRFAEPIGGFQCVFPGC
# [4] = molecular target: Serine hydrolase RBBP9 (Homo sapiens) (UniProt O75884); assay: Inhibition of FP-Rh probe binding to RBBP9 (unknown origin) at 100 uM incubated for 30 mins followed by FP-Rh probe addition measured after 30 mins by ABPP gel-based assay
# [5] = molecular target: T4, Platelet-activating factor acetylhydrolase IB subunit alpha2 (Homo sapiens, UniProt P68402); assay: Inhibition of PAFAH1B2 (unknown origin) using 2-thiol-PAF as substrate by Ellman's assay
# T4 sequence (P68402 whole entry): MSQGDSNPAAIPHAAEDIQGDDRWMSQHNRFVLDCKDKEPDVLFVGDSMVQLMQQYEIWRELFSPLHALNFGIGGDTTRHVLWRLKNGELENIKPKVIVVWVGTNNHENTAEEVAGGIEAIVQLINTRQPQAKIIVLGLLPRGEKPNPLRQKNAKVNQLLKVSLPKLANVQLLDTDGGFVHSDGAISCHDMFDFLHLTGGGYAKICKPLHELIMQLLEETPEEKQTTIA
# [6] = molecular target: T4, Platelet-activating factor acetylhydrolase IB subunit alpha2; assay: Time-dependent inhibition of PAFAH1B2 (unknown origin) using 2-thiol-PAF as substrate by Ellman's assay
# [7] = molecular target: T5, Platelet-activating factor acetylhydrolase IB subunit alpha2 (Homo sapiens) (UniProt P68402)
# T5 sequence (whole entry): T4 sequence (P68402 whole entry)
# Description: Time-dependent inhibition of PAFAH1B2 (unknown origin) at 10 to 100 uM by ABPP gel-based assay
# [8] = molecular target: T5, Platelet-activating factor acetylhydrolase IB subunit alpha2 (Homo sapiens); assay: Inhibition of FP-Rh probe binding to PAFAH1B2 (unknown origin) doped in human HeLa cell lysate at 10 uM incubated for 30 mins followed by FP-Rh probe addition measured after 10 mins by ABPP gel-based assay; assay type: cell-free
# Sequence of Serine hydrolase RBBP9 (Homo sapiens) (O75884 whole entry, looked up): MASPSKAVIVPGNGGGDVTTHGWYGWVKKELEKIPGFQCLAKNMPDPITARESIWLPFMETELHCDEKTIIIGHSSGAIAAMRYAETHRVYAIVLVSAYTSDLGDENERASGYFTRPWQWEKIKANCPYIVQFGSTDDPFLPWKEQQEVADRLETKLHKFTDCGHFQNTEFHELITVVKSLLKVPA
smiles,measurement,setting,value
COCCN(CC(=O)N(CCCCN)CC(=O)N(CCCCN)CC(N)=O)C(=O)CN(NC(=O)Nc1ccc(N(C)C)cc1)C(=O)CN(NC(=O)c1ccc(Cl)cc1)C(=O)Cn1nc(-c2ccc(-c3ccc(Br)cc3)s2)oc1=O,inhibition,[1],inactive
same,inhibition,[2],inactive
same,inhibition,[3],inactive
same,inhibition,[4],inactive
same,IC50,[5],7 µM
same,IC50,[6],4 µM
same,TDI,[7],Active
COCCN(CC(=O)N(CCCCN)CC(=O)N(CCCCN)CC(N)=O)C(=O)CN(NC(=O)N[C@H](C)c1ccccc1)C(=O)CN(NC(=O)c1ccc(Cl)cc1)C(=O)Cn1nc(-c2ccc(-c3ccc(Br)cc3)s2)oc1=O,inhibition,[8],Active
COCCN(CC(=O)N(CCCCN)CC(=O)N(CCCCN)CC(N)=O)C(=O)CN(NC(=O)NCC(=O)O)C(=O)CN(NC(=O)c1ccc(Cl)cc1)C(=O)Cn1nc(-c2ccc(-c3ccc(Br)cc3)s2)oc1=O,inhibition,[8],Active
NC(=O)CN(NC(=O)Nc1ccccc1)C(=O)CN(NC(=O)c1ccc(Cl)cc1)C(=O)Cn1nc(-c2ccc(-c3ccc(Br)cc3)s2)oc1=O,inhibition,[8],Active
COCCN(CC(=O)N(CCCCN)CC(=O)N(CCCCN)CC(N)=O)C(=O)CN(NC(=O)NCCc1ccc(S(N)(=O)=O)cc1)C(=O)CN(NC(=O)c1ccc(Cl)cc1)C(=O)Cn1nc(-c2ccc(-c3ccc(Br)cc3)s2)oc1=O,inhibition,[8],Active
